Results on 38 compounds are retold here after patent US20090030024A1, “THIAZOLES AS FUNGICIDES” (priority 2005, published 2009).

Usually chromatographic logP stands for lipophilicity estimated from chromatographic retention. A high value points to higher lipophilicity.

The nature of the first series: logP determination by retention times (calibration with alkan-2-ones).
Settings: not given
With `COc1cc(Nc2nccc(-c3sc(NCC4CCCO4)nc3C)n2)cc(OC)c1OC` (centres unmarked) [Example 354, 4-{4-methyl-2-[(tetrahydrofuran-2-ylmethyl)amino]-1,3-thiazol-5-yl}-N-(3,4,5-trimethoxyphenyl)pyrimidine-2-amine], the chromatographic logP stood at 1.8. Same read-out and setting: for `Cc1nc(NCC2CCCO2)sc1-c1ccnc(Nc2cccc([N+](=O)[O-])c2)n1` (centres unmarked) [Example 355, 4-{4-methyl-2-[(tetrahydrofuran-2-ylmethyl)amino]-1,3-thiazol-5-yl}-N-(3-nitrophenyl)pyrimidine-2-amine] the value was 2.13. The compound `Cc1nc(NCC2CCCO2)sc1-c1ccnc(Nc2ccccc2)n1` (centres unmarked) [Example 356, 4-{4-methyl-2-[(tetrahydrofuran-2-ylmethyl)amino]-1,3-thiazol-5-yl}-N-phenylpyrimidine-2-amine] had a chromatographic logP of 1.87.

`Cc1nc(N(C)c2ccccc2)sc1-c1ccnc(Nc2ccccc2)n1` [Example 357, 4-{4-methyl-2-[methyl(phenyl)amino]-1,3-thiazol-5-yl}-N-phenylpyrimidine-2-amine] had a chromatographic logP of 3.21.

`Cc1nc(C(=O)N(C)C)sc1-c1ccnc(Nc2ccccc2)n1` [Example 373, 5-(2-anilinopyrimidin-4-yl)-N,N,4-trimethyl-1,3-thiazole-2-carboxamide] gave a chromatographic logP of 2.72.

As for `CCOC(=O)c1cccc(Nc2nccc(-c3sc(C4CC4)nc3C)n2)c1` [Example 374, ethyl-3-{[4-(2-cyclopropyl-4-methyl-1,3-thiazol-5-yl)pyrimidin-2-yl]amino}benzoate], the chromatographic logP came to 3.56. Same read-out and setting: the figure for `COC(=O)Nc1ccc(Nc2nccc(-c3sc(C)nc3C)n2)cc1` [Example 380, methyl-(4-{[4-(2,4-dimethyl-1,3-thiazol-5-yl)pyrimidin-2-yl]amino}phenyl)carbamate] is 1.84; for `Cc1nc(C)c(-c2ccnc(Nc3ccc4c(c3)OCCO4)n2)s1` [Example 387, N-(2,3-dihydro-1,4-benzodioxin-6-yl)-4-(2,4-dimethyl-1,3-thiazol-5-yl)pyrimidine-2-amine] it is 2.34; for `CCc1nc(C)c(-c2ccnc(Nc3ccc4c(c3)OCCO4)n2)s1` [Example 388, N-(2,3-dihydro-1,4-benzodioxin-6-yl)-4-(2-ethyl-4-methyl-1,3-thiazol-5-yl)pyrimidine-2-amine] it is 2.7. As to `Cc1nc(C(C)C)sc1-c1ccnc(Nc2ccc3c(c2)OCCO3)n1` [Example 389, N-(2,3-dihydro-1,4-benzodioxin-6-yl)-4-(2-isopropyl-4-methyl-1,3-thiazol-5-yl)pyrimidine-2-amine], the chromatographic logP is 3.16. Compound `COCc1nc(C)c(-c2ccnc(Nc3ccc4c(c3)OCCO4)n2)s1` [Example 390, N-(2,3-dihydro-1,4-benzodioxin-6-yl)-4-[2-(methoxymethyl)-4-methyl-1,3-thiazol-5-yl]pyrimidine-2-amine] showed a chromatographic logP of 2.49. Same read-out and setting: the figure for `COc1ccc(OC)c(Nc2nccc(-c3sc(C)nc3C)n2)c1` [Example 391, N-(2,5-dimethoxyphenyl)-4-(2,4-dimethyl-1,3-thiazol-5-yl)pyrimidine-2-amine] is 3.03; for `Cc1nc(C(C)C)sc1-c1ccnc(Nc2ccc(F)c(F)c2)n1` [Example 401, N-(3,4-difluorophenyl)-4-(2-isopropyl-4-methyl-1,3-thiazol-5-yl)pyrimidine-2-amine] it is 3.95; for `COc1ccc(Nc2nccc(-c3sc(C)nc3C)n2)cc1OC` [Example 403, N-(3,4-dimethoxyphenyl)-4-(2,4-dimethyl-1,3-thiazol-5-yl)pyrimidine-2-amine] it is 2.16.

For `COCc1nc(C)c(-c2ccnc(Nc3ccc(OC)c(OC)c3)n2)s1` [Example 404, N-(3,4-dimethoxyphenyl)-4-[2-(methoxymethyl)-4-methyl-1,3-thiazol-5-yl]pyrimidine-2-amine], the chromatographic logP is 2.23. The same measure, in the same setting: the figure for `COc1ccc(Nc2nccc(-c3sc(SC)nc3C)n2)cc1OC` [Example 405, N-(3,4-dimethoxyphenyl)-4-[4-methyl-2-(methylthio)-1,3-thiazol-5-yl]pyrimidine-2-amine] is 2.78.

The compound `COc1cc(Nc2nccc(-c3sc(C)nc3C)n2)cc(OC)c1` [Example 406, N-(3,5-dimethoxyphenyl)-4-(2,4-dimethyl-1,3-thiazol-5-yl)pyrimidine-2-amine] displayed a chromatographic logP of 2.64. The chromatographic logP values of the last two compounds are within 0.2 log units of each other.

Staying with this series, now noted: * HPLC reversed-phase C18, 40° C., mobile phase 0.1% aqueous formic acid and acetonitrile, linear gradient 10% to 95% acetonitrile.
Regarding `CNc1nc(C)c(-c2ccnc(Nc3cccc(Cl)c3)n2)s1` [Example 434, N-(3-chlorophenyl)-4-[4-methyl-2-(methylamine)-1,3-thiazol-5-yl]pyrimidine-2-amine], the logP is recorded as 2.03*.

Still in this series, the particulars now being: logP, * HPLC reversed-phase C18, 40° C., mobile phase 0.1% aqueous formic acid and acetonitrile, linear gradient 10% to 95% acetonitrile.
In the case of `COc1cc(Nc2nccc(-c3sc(SC)nc3C)n2)cc(OC)c1` [Example 407, N-(3,5-dimethoxyphenyl)-4-[4-methyl-2-(methylthio)-1,3-thiazol-5-yl]pyrimidine-2-amine], the chromatographic logP turned out to be 3.39. In turn, `CC(=O)NCc1cccc(Nc2nccc(-c3sc(C4CC4)nc3C)n2)c1` [Example 414, N-(3-{[4-(2-cyclopropyl-4-methyl-1,3-thiazol-5-yl)pyrimidin-2-yl]amino}benzyl)acetamide] came in with a chromatographic logP of 1.96.

`CCc1nc(C)c(-c2ccnc(Nc3cccc(NC(C)=O)c3)n2)s1` [Example 415, N-(3-{[4-(2-ethyl-4-methyl-1,3-thiazol-5-yl)pyrimidin-2-yl]amino}phenyl)acetamide] showed a chromatographic logP of 2.05. Same read-out and setting: the figure for `COc1ccc(Nc2nccc(-c3sc(C)nc3C)n2)cc1Cl` [Example 416, N-(3-chloro-4-methoxyphenyl)-4-(2,4-dimethyl-1,3-thiazol-5-yl)pyrimidine-2-amine] is 2.88. Regarding `COCc1nc(C)c(-c2ccnc(Nc3ccc(OC)c(Cl)c3)n2)s1` [Example 419, N-(3-chloro-4-methoxyphenyl)-4-[2-(methoxymethyl)-4-methyl-1,3-thiazol-5-yl]pyrimidine-2-amine], the chromatographic logP came out at 2.91. For the compound `Cc1nc(C2CC2)sc1-c1ccnc(Nc2cccc(Cl)c2)n1` [Example 422, N-(3-chlorophenyl)-4-(2-cyclopropyl-4-methyl-1,3-thiazol-5-yl)pyrimidine-2-amine], the chromatographic logP was 3.94. For the compound `CCc1nc(C)c(-c2ccnc(Nc3cccc(Cl)c3)n2)s1` [Example 424, N-(3-chlorophenyl)-4-(2-ethyl-4-methyl-1,3-thiazol-5-yl)pyrimidine-2-amine], the chromatographic logP came to 3.72. Still for that read-out and setting: for `Cc1nc(C(C)C)sc1-c1ccnc(Nc2cccc(Cl)c2)n1` [Example 425, N-(3-chlorophenyl)-4-(2-isopropyl-4-methyl-1,3-thiazol-5-yl)pyrimidine-2-amine] the value was 4.25; for `COCc1nc(C)c(-c2ccnc(Nc3cccc(Cl)c3)n2)s1` [Example 432, N-(3-chlorophenyl)-4-[2-(methoxymethyl)-4-methyl-1,3-thiazol-5-yl]pyrimidine-2-amine], 3.24. The same measure, in the same setting: the figure for `Cc1nc(C(F)(F)F)c(-c2ccnc(Nc3cccc(Cl)c3)n2)s1` [Example 433, N-(3-chlorophenyl)-4-[2-methyl-4-(trifluoromethyl)-1,3-thiazol-5-yl]pyrimidine-2-amine] is 4.03.

On to `CSc1nc(C)c(-c2ccnc(Nc3cccc(Cl)c3)n2)s1` [Example 435, N-(3-chlorophenyl)-4-[4-methyl-2-(methylthio)-1,3-thiazol-5-yl]pyrimidine-2-amine], for which the chromatographic logP turned out to be 4.08. For `COCC(C)Nc1nc(C)c(-c2ccnc(Nc3cccc(Cl)c3)n2)s1` (centres unmarked) [Example 437, N-(3-chlorophenyl)-4-{2-[(2-methoxy-1-methylethyl)amino]-4-methyl-1,3-thiazol-5-yl}pyrimidine-2-amine], the chromatographic logP came out at 2.47. The same measure, in the same setting: the figure for `Cc1nc(NCC2CCCO2)sc1-c1ccnc(Nc2cccc(Cl)c2)n1` (centres unmarked) [Example 443, N-(3-chlorophenyl)-4-{4-methyl-2-[(tetrahydrofuran-2-ylmethyl)amino]-1,3-thiazol-5-yl}pyrimidine-2-amine] is 2.36; for `COc1cccc(Nc2nccc(-c3sc(SC)nc3C)n2)c1` [Example 449, N-(3-methoxyphenyl)-4-[4-methyl-2-(methylthio)-1,3-thiazol-5-yl]pyrimidine-2-amine] it is 3.33. Same read-out and setting: for `COc1cccc(Nc2nccc(-c3sc(NCC4CCCO4)nc3C)n2)c1` (centres unmarked) [Example 451, N-(3-methoxyphenyl)-4-{4-methyl-2-[(tetrahydrofuran-2-ylmethyl)amino]-1,3-thiazol-5-yl}pyrimidine-2-amine] the value was 1.94; for `CC(=O)Nc1ccc(Nc2nccc(-c3sc(C)nc3C)n2)cc1` [Example 458, N-(4-{[4-(2,4-dimethyl-1,3-thiazol-5-yl)pyrimidin-2-yl]amino}phenyl)acetamide], 1.62; for `CC(=O)Nc1ccc(Nc2nccc(-c3sc(C4CC4)nc3C)n2)cc1` [Example 459, N-(4-{[4-(2-cyclopropyl-4-methyl-1,3-thiazol-5-yl)pyrimidin-2-yl]amino}phenyl)acetamide], 2. `CCc1nc(C)c(-c2ccnc(Nc3ccc(Cl)cc3)n2)s1` [Example 463, N-(4-chlorophenyl)-4-(2-ethyl-4-methyl-1,3-thiazol-5-yl)pyrimidine-2-amine]: the chromatographic logP amounted to 3.72.

Staying with this series, now noted: logP, ** HPLC reversed-phase C18, 43° C., mobile phase 0.1% aqueous phosphoric acid and acetonitrile, linear gradient 10% to 95% acetonitrile.
As to `Cc1nc(C)c(-c2ccnc(Nc3cccc(Cl)c3)n2)s1` [Example 421, N-(3-chlorophenyl)-4-(2,4-dimethyl-1,3-thiazol-5-yl)pyrimidine-2-amine], the chromatographic logP was found to be 3.11. Still for that read-out and setting: the figure for `Cc1nc(C)c(-c2ccnc(Nc3ccc(Cl)cc3)n2)s1` [Example 462, N-(4-chlorophenyl)-4-(2,4-dimethyl-1,3-thiazol-5-yl)pyrimidine-2-amine] is 3.09.
